Experimental data as given in paper PMC5306082, “Physiologically based kinetic modeling of the bioactivation of myristicin” (Archives of Toxicology, 2016).

What was measured:
Format in all cases: in vitro ADME
[1] = Glucuronidation of 1′-hydroxymyristicin, human liver S9; settings: both sexes, human, pH 7.4; 1′-hydroxymyristicin to its glucuronide; S9, UDPGA; read-out: Km
Experimental: (§1) The kinetic constants for the metabolic conversion of 1′-hydroxymyristicin to 1′-hydroxymyristicin glucuronide (HMG) by both male rat and human liver fractions were determined as described previously for the related 1′-hydroxyalkenylbenzenes (Punt et al. [2008]; van den Berg et al. [2012]; Punt et al. [2009]; Martati et al. [2011], [2012]; Al-Subeihi et al. [2011], [2012]). Briefly, incubations contained (final concentrations) 10 mM of UDPGA and 0.5 mg/ml of male Sprague–Dawley or pooled gender human S9 protein in 0.2 M Tris–HCl (pH 7.4) containing 10 mM of MgCl2. To overcome enzyme latency and to obtain maximal glucuronidation activity, incubations containing S9 were pretreated on ice with 0.025 mg/ml alamethicin added from a 200 times concentrated stock dissolved in methanol (Fisher et al. [2000]; Lin and Wong [2002]). After 15 min of alamethicin treatment, samples were pre-incubated at 37 °C for 1 min, and reactions were subsequently started by adding 1′-hydroxymyristicin at final concentrations of 10 to 1200 μM. 1′-Hydroxymyristicin was added from 100 times concentrated stock solutions in DMSO. The reaction mixtures were incubated for 30 and 180 min for rat and human, respectively, and terminated by adding 25 µl (0.25 times the incubation volume) of ice-cold ACN. Blank incubations were carried out in the absence of the cofactor UDPGA. Experiments were performed in triplicate. The longer incubation time in human samples was required due to the lower rate of glucuronidation. The formation of 1′-hydroxymyristicin glucuronide was linear with time and the S9 protein concentration under the experimental conditions described. All samples were centrifuged for 5 min at 16,000×g, and the supernatant was stored at −20 °C until ultra-performance liquid chromatography (UPLC) analysis.
(§2) 1′-Hydroxymyristicin glucuronide was estimated based on the comparison of the peak area of the formed metabolite to the calibration curve of 1′-hydroxymyristicin at a wavelength of 210 nm. The flow rate was 0.6 ml/min. The gradient was made using a mixture of ACN and ultrapure water containing 0.1 % (v/v) TFA.

[2] = Microsomal conversion of myristicin, human liver microsomes
Experimental: (§3) First, it was determined which organs are involved in the biotransformation of myristicin in rat and human. For this purpose, liver, kidney, lung, and small intestine microsomes from male Sprague–Dawley rat and pooled gender human were used. Incubations were performed by adding myristicin to incubation mixtures containing 1 mg/mL of the microsomal protein preparations and 3 mM NADPH in 0.2 M Tris–HCl (pH 7.4). After 1 min of pre-incubation at 37 °C, myristicin (final concentration, 1000 μM) was added from a 100 times concentrated stock solution in DMSO so that the final DMSO content was 1 % (v/v). Incubations were carried out for 30 min after which the reactions were terminated by adding 25 µl (0.25 times the incubation volume) of ice-cold ACN. Samples were centrifuged for 5 min at 13,000×g, and the supernatant was stored at −20 °C until UPLC analysis. As metabolism of myristicin was observed only in incubations with liver microsomes for male rats and pooled gender human, the determination of kinetic constants for the formation of microsomal metabolites was performed only for the liver fractions. Incubations to determine kinetic constants were performed following the conditions described above using final concentrations of myristicin from 25 to 1000 μM for rat and human liver. In all incubations, the final concentration of DMSO, in which myristicin was dissolved, was kept at 1 % (v/v). The formation of different microsomal metabolites was linear with time and microsomal protein concentration under the conditions described. Blank incubations were performed in the absence of the cofactor NADPH. All incubations were performed in triplicate.
(§4) Secondary metabolism of the relevant 1′-hydroxy metabolite of myristicin was taken into account by determining the kinetic constants for its conversion in (a) glucuronidation, (b) sulfation, and (c) oxidation, again under conditions that allowed adequate definition of kinetic constants and with <10 % substrate conversion. Incubation samples were subjected to UPLC analysis that was performed as described previously (Punt et al. [2008]). Identification was achieved by comparing the UV spectra of the formed metabolites to the spectra of the synthesized 1′-hydroxymyristicin and 1′-oxomyristicin reference standards. Quantification of all formed metabolites was done by comparing the peak areas to those of calibration curves of the corresponding reference compounds, determined using UPLC with photodiode array detection (UPLC-PDA). The UPLC system was composed of a Waters (Waters, Milford, MA) Acquity solvent manager, sample manager, and photodiode array detector, equipped with Water Acquity UPLC BEH C18 column.
(§5) The gradient for analysis of microsomal metabolites was performed with 100 % ACN and ultrapure water containing 0.1 % (v/v) TFA. The flow rate was 0.6 ml/min. The gradient started at 10 % ACN, increased to 50 % ACN over 4 min, increased to 80 % over 0.5 min, followed by decrease to 10 % ACN over 0.5 min, and finally kept at 10 % for 1 min.

[3] = Glucuronidation of 1′-hydroxymyristicin, male rat liver S9
Experimental: as §1, §2

[4] = Microsomal conversion of myristicin, male rat liver microsomes
Experimental: as §3, §4, §5

[5] = formation of the metabolite from myristicin, NADPH, mean of three ± SD
[6] = formation of the metabolite from myristicin, Vmax/Km × 1000
[7] = from myristicin, scaled Vmax/Km

SMILES: C=CC(O)c1cc(OC)c2c(c1)OCO2 (centres unmarked) [1′-Hydroxymyristicin, 1′-hydroxymyristicin]
- Km at 180 min [1]: 3.14 mM
- Vmax [2, 5]: 0.17 ± 0.03 nmol min^−1 (mg microsomal or S9 protein)^−1
- In vitro catalytic efficiency [2, 6]: 0.726 μl min^−1 (mg microsomal or S9 protein)^−1
- Scaled Vmax, in vivo ([2]; from myristicin, microsomal protein yield 32 mg/g liver): 0.326 μmol/h/g tissue
- In vivo catalytic efficiency [2, 7]: 0.0014 ml/h/g tissue
- Km at 30 min ([3]; male, Sprague-Dawley, rat, pH 7.4, 1′-hydroxymyristicin to its glucuronide, S9, UDPGA, read-out: Km): 836 µM
- catalytic efficiency of glucuronidation, fold higher in male rats than in human ([3]; rat vs human): 400 fold
- Vmax [4, 5]: 0.86 ± 0.18 nmol min^−1 (mg microsomal or S9 protein)^−1
- In vitro catalytic efficiency [4, 6]: 8.431 μl min^−1 (mg microsomal or S9 protein)^−1
- Scaled Vmax, in vivo ([4]; from myristicin, microsomal protein yield 35 mg/g liver): 1.806 μmol/h/g tissue
- In vivo catalytic efficiency [4, 7]: 0.0177 ml/h/g tissue
- Km for formation from myristicin, fold lower in rat liver than in human liver incubations ([4]; rat vs human): twofold lower
- Vmax for formation from myristicin, fold higher in rat liver than in human liver incubations ([4]; rat vs human): fivefold higher
- catalytic efficiency for formation from myristicin, fold higher in male rat liver than in human liver ([4]; scaled catalytic efficiency, rat vs human): 13 fold
